Read-outs that look alike come from different tables or passages of the source.
Assays:
[1] = log P determination by HPLC on reverse-phase column (C 18), EEC Directive 79/831 Annex V.A8; format: physicochemical; settings: 43° C.; for chromatographic logP: reverse-phase HPLC column (C 18)
Procedure: The determination is carried out in the acidic range at pH 2.3 using the mobile phases 0.1% aqueous phosphoric acid and acetonitrile; linear gradient from 10% acetonitrile to 90% acetonitrile.

[2] = pH 2.3, pH 2.3, preparation example, 0.1% aqueous phosphoric acid/acetonitrile gradient, read-out: HPLC: log P (pH 2.3)

| SMILES | HPLC: log P (pH 2.3) ([1]; pH 2.3, preparation example, 0.1% aqueous phosphoric acid/acetonitrile gradient) | chromatographic logP [1, 2] | melting point | chromatographic logP ([1]; pH 2.3, azides of the formula (II), acidic range pH 2.3, read-out: logP*) | chromatographic logP ([1]; pH 2.3, haloketones of the formula (III), acidic range pH 2.3, read-out: logP*) |
| --- | --- | --- | --- | --- | --- |
| Fc1cccc(F)c1C1=NC(c2ccc(Br)cc2)CC1 (stereo not drawn) [Example I-1, 2-(4-bromophenyl)-5-(2,6-difluorophenyl)-3,4-dihydro-2H-pyrrole] | 2.71 | 2.72 | 48 °C |  |  |
| [N-]=[N+]=NC(CCC(=O)c1c(F)cccc1F)c1ccc(Br)cc1 (stereo not drawn) [II-1, 4-(4-bromophenyl)-4-azido-1-(2,6-difluorophenyl)-1-butanone] |  | 4.47 |  | 4.47 |  |
| O=C(CCC(Cl)c1ccc(Br)cc1)c1c(F)cccc1F (stereo not drawn) [III-1, 4-(4-bromophenyl)-4-chloro-1-(2,6-difluorophenyl)-1-butanone] |  | 4.52 |  |  | 4.43 |

Other lines, results leading:

| HPLC: log P (pH 2.3) ([1]; pH 2.3, preparation example, 0.1% aqueous phosphoric acid/acetonitrile gradient) | chromatographic logP [1, 2] | melting point | chromatographic logP ([1]; pH 2.3, azides of the formula (II), acidic range pH 2.3, read-out: logP*) | chromatographic logP ([1]; pH 2.3, haloketones of the formula (III), acidic range pH 2.3, read-out: logP*) | SMILES |
| --- | --- | --- | --- | --- | --- |
|  |  | 64 to 65 °C |  |  | O=C(c1c(F)cccc1F)C1CC1c1ccc(Br)cc1 (stereo not drawn) [Example V-1, [2-(4-bromophenyl)cyclopropyl](2,6-difluorophenyl)methanone] |
|  |  | 71 °C |  |  | O=C(/C=C/c1ccc(Br)cc1)c1c(F)cccc1F [VI-1, (2E)-3-(4-bromophenyl)-1-(2,6-difluorophenyl)-2-propen-1-one] |
